≈ marks a conversion by molar mass, not a printed value. Structures can show the parent of a compound that is named as a salt.
Tests used:
Assay in all cases: Antibacterial activity, microbroth dilution method (MIC)
[1] = test system: Gram-positive Staphylococcus aureus (S. aureus) 29213; format: cell-based; details: Staphylococcus aureus, Gram-positive S. aureus 29213
Procedure, shortened: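 Lowest concentration stopping macroscopically visible growth under test conditions, by broth microdilution, defines the MIC (μg/mL).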

[2] = test system: super sensitive Gram-negative Escherichia coli (E. coli) BAS849; format: cell-based; details: Escherichia coli; super sensitive Gram-negative E. coli BAS849; microbroth dilution; read-out: MIC, E. coli BAS849
Procedure, shortened: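 Broth microdilution; endpoint = no macroscopic growth; value = lowest inhibiting concn, μg/mL.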

[3] = test system: control Gram-negative E. coli 25922 strain; format: cell-based, Escherichia coli; details: Escherichia coli
Procedure, shortened: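 MIC (μg/mL) is taken as the lowest concentration with no macroscopically visible growth. Strains tested by microbroth dilution: Gram-positive S. aureus 29213, control Gram-negative E. coli 25922, and super-sensitive E. coli BAS849.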

O=C(O)c1c(O)c2c([nH]c1=O)-c1ccc(N3CCCC3)cc1CCC2 [Cpd 7, 4-hydroxy-2-oxo-9-(pyrrolidin-1-yl)-2,5,6,7-tetrahydro-1H-benzo[6,7]cyclohepta[1,2-b]pyridine-3-carboxylic acid]
MIC [1]: 3.5 to 12.5 µg/mL (≈ 10.3 to 36.7 µM)
MIC [2]: < 1 µg/mL
MIC [3]: 12.5 to 150 µg/mL (≈ 36.7 to 441 µM)

CN1CCC(NCc2cc3cc4c(cc3n2C)CCCc2c-4[nH]c(=O)c(C(=O)O)c2O)CC1.Cl.Cl [Cpd 157, 4-hydroxy-9-methyl-10-(((1-methylpiperidin-4-yl)amino)methyl)-2-oxo-1,2,5,6,7,9-hexahydropyrido[3′,2′:6,7]cyclohepta[1,2-f]indole-3-carboxylic acid dihydrochloride]
MIC [1]: 12.5 to 150 µg/mL
MIC [2]: < 1 µg/mL
MIC [3]: 1 to 3.5 µg/mL

CC1CCc2cc(N3CCC(N(C)C)C3)ccc2-c2[nH]c(=O)c(C(=O)O)c(O)c21.Cl (stereo not drawn) [Cpd 12, 9-(3-(dimethylamino)pyrrolidin-1-yl)-4-hydroxy-5-methyl-2-oxo-2,5,6,7-tetrahydro-1H-benzo[6,7]cyclohepta[1,2-b]pyridine-3-carboxylic acid hydrochloride]
MIC [1]: 12.5 to 150 µg/mL
MIC [2]: 1 to 3.5 µg/mL
MIC [3]: 12.5 to 150 µg/mL

CC(C)NCc1cc2cc3c(cc2n1C)CCCc1cc(C(=O)O)c(=O)[nH]c1-3.Cl [Cpd 55, 10-((isopropylamino)methyl)-9-methyl-2-oxo-1,2,5,6,7,9-hexahydropyrido[3′,2′:6,7]cyclohepta[1,2-f]indole-3-carboxylic acid hydrochloride]
MIC [1]: 12.5 to 150 µg/mL
MIC [2]: < 1 µg/mL
MIC [3]: 1 to 3.5 µg/mL

Cl.O=C(O)c1c(O)c2c([nH]c1=O)-c1ccc(NC3CCNCC3)cc1CCC2 [Cpd 118, 4-hydroxy-2-oxo-9-(piperidin-4-ylamino)-2,5,6,7-tetrahydro-1H-benzo[6,7]cyclohepta[1,2-b]pyridine-3-carboxylic acid hydrochloride]
MIC [1]: 12.5 to 150 µg/mL
MIC [2]: 12.5 to 150 µg/mL
MIC [3]: 12.5 to 150 µg/mL

CN(C)Cc1cc2cc3c(cc2n1C)CCCc1c-3[nH]c(=O)c(C(=O)O)c1O.Cl [Cpd 48, 10-((dimethylamino)methyl)-4-hydroxy-9-methyl-2-oxo-1,2,5,6,7,9-hexahydropyrido[3′,2′:6,7]cyclohepta[1,2-f]indole-3-carboxylic acid hydrochloride]
MIC [1]: 3.5 to 12.5 µg/mL
MIC [2]: < 1 µg/mL
MIC [3]: < 1 µg/mL

Cl.Cn1c(CN2CCCCC2)cc2cc3c(cc21)CCCc1c-3[nH]c(=O)c(C(=O)O)c1O [Cpd 40, 4-hydroxy-9-methyl-2-oxo-10-(piperidin-1-ylmethyl)-1,2,5,6,7,9-hexahydropyrido[3′,2′:6,7]cyclohepta[1,2-f]indole-3-carboxylic acid hydrochloride]
MIC [1]: 3.5 to 12.5 µg/mL
MIC [2]: < 1 µg/mL
MIC [3]: 1 to 3.5 µg/mL

CNCc1cc2cc3c(cc2n1C)OCCc1c-3[nH]c(=O)c(C(=O)O)c1O.Cl [Cpd 88, 4-hydroxy-9-methyl-10-((methylamino)methyl)-2-oxo-2,5,6,9-tetrahydro-1H-pyrido[2′,3′:4,5]oxepino[3,2-f]indole-3-carboxylic acid hydrochloride]
MIC [1]: 12.5 to 150 µg/mL
MIC [2]: < 1 µg/mL
MIC [3]: 1 to 3.5 µg/mL

CCCCCNCc1cc2cc3c(cc2n1C)CCCc1c-3[nH]c(=O)c(C(=O)O)c1O.Cl [Cpd 137, 4-hydroxy-9-methyl-2-oxo-10-((pentylamino)methyl)-1,2,5,6,7,9-hexahydropyrido[3′,2′:6,7]cyclohepta[1,2-f]indole-3-carboxylic acid hydrochloride]
MIC [1]: 3.5 to 12.5 µg/mL
MIC [2]: < 1 µg/mL
MIC [3]: < 1 µg/mL

CCNCc1cc2cc3c(cc2n1C)OCC(C)c1c-3[nH]c(=O)c(C(=O)O)c1O.Cl (stereo not drawn) [Cpd 92, 10-((ethylamino)methyl)-4-hydroxy-5,9-dimethyl-2-oxo-2,5,6,9-tetrahydro-1H-pyrido[2′,3′:4,5]oxepino[3,2-f]indole-3-carboxylic acid hydrochloride]
MIC [1]: 12.5 to 150 µg/mL
MIC [2]: 1 to 3.5 µg/mL
MIC [3]: 3.5 to 12.5 µg/mL

CN1CCCN(c2ccc3c(c2)CCCc2c-3[nH]c(=O)c(C(=O)O)c2O)CC1.Cl [Cpd 112, 4-hydroxy-9-(4-methyl-1,4-diazepan-1-yl)-2-oxo-2,5,6,7-tetrahydro-1H-benzo[6,7]cyclohepta[1,2-b]pyridine-3-carboxylic acid hydrochloride]
MIC [1]: 12.5 to 150 µg/mL
MIC [2]: 1 to 3.5 µg/mL
MIC [3]: 3.5 to 12.5 µg/mL

CC1CC1CNCc1cc2cc3c(cc2n1C)CCCc1c-3[nH]c(=O)c(C(=O)O)c1O.Cl (stereo not drawn) [Cpd 38, 4-hydroxy-9-methyl-10-((((2-methylcyclopropyl)methyl)amino)methyl)-2-oxo-1,2,5,6,7,9-hexahydropyrido[3′,2′:6,7]cyclohepta[1,2-f]indole-3-carboxylic acid hydrochloride]
MIC [1]: 3.5 to 12.5 µg/mL
MIC [2]: < 1 µg/mL
MIC [3]: 1 to 3.5 µg/mL

Cl.Cn1c(CNC2(C)CC2)cc2cc3c(cc21)OCCc1c-3[nH]c(=O)c(C(=O)O)c1O [Cpd 167, 4-hydroxy-9-methyl-10-(((1-methylcyclopropyl)amino)methyl)-2-oxo-2,5,6,9-tetrahydro-1H-pyrido[2′,3′:4,5]oxepino[3,2-f]indole-3-carboxylic acid hydrochloride]
MIC [1]: 1 to 3.5 µg/mL
MIC [2]: < 1 µg/mL
MIC [3]: < 1 µg/mL

CCn1c2c(c(O)c(C(=O)O)c1=O)CC=Cc1cc3c(ccn3C)cc1-2 [Cpd 132, 1-ethyl-4-hydroxy-9-methyl-2-oxo-1,2,5,9-tetrahydropyrido[3′,2′:6,7]cyclohepta[1,2-f]indole-3-carboxylic acid]
MIC [1]: 3.5 to 12.5 µg/mL (≈ 9.99 to 35.7 µM)
MIC [2]: 3.5 to 12.5 µg/mL (≈ 9.99 to 35.7 µM)
MIC [3]: 12.5 to 150 µg/mL (≈ 35.7 to 428 µM)

CN(C)C1CCN(c2ccc3c(c2)OCCc2cc(C(=O)O)c(=O)[nH]c2-3)C1.Cl (stereo not drawn) [Cpd 82, 9-(3-(dimethylamino)pyrrolidin-1-yl)-2-oxo-1,2,5,6-tetrahydrobenzo[2,3]oxepino[4,5-b]pyridine-3-carboxylic acid hydrochloride]
MIC [1]: 12.5 to 150 µg/mL
MIC [2]: 3.5 to 12.5 µg/mL
MIC [3]: 12.5 to 150 µg/mL

CN1CCN(c2ccc3c(c2)CCCc2c-3[nH]c(=O)c(C(=O)O)c2O)CC1.Cl [Cpd 120, 4-hydroxy-9-(4-methylpiperazin-1-yl)-2-oxo-2,5,6,7-tetrahydro-1H-benzo[6,7]cyclohepta[1,2-b]pyridine-3-carboxylic acid hydrochloride]
MIC [1]: 12.5 to 150 µg/mL
MIC [2]: 1 to 3.5 µg/mL
MIC [3]: 12.5 to 150 µg/mL

CN1CCN(c2ccc3c(c2)NCCc2c-3[nH]c(=O)c(C(=O)O)c2O)CC1.Cl [Cpd 96, 4-hydroxy-9-(4-methylpiperazin-1-yl)-2-oxo-2,5,6,7-tetrahydro-1H-benzo[b]pyrido[2,3-d]azepine-3-carboxylic acid hydrochloride]
MIC [1]: 12.5 to 150 µg/mL
MIC [2]: 3.5 to 12.5 µg/mL
MIC [3]: 12.5 to 150 µg/mL

Cl.Cn1c(CN2CC[C@@H](F)C2)cc2cc3c(cc21)CCCc1c-3[nH]c(=O)c(C(=O)O)c1O [Cpd 46, (R)-10-((3-fluoropyrrolidin-1-yl)methyl)-4-hydroxy-9-methyl-2-oxo-1,2,5,6,7,9-hexahydropyrido[3′,2′:6,7]cyclohepta[1,2-f]indole-3-carboxylic acid hydrochloride]
MIC [1]: 3.5 to 12.5 µg/mL
MIC [2]: < 1 µg/mL
MIC [3]: 1 to 3.5 µg/mL

CN(C)C1CCN(c2ccc3c(c2)OCCc2c-3[nH]c(=O)c(C(=O)O)c2O)C1.Cl (stereo not drawn) [Cpd 78, 9-(3-(dimethylamino)pyrrolidin-1-yl)-4-hydroxy-2-oxo-1,2,5,6-tetrahydrobenzo[2,3]oxepino[4,5-b]pyridine-3-carboxylic acid hydrochloride]
MIC [1]: 12.5 to 150 µg/mL
MIC [2]: 1 to 3.5 µg/mL
MIC [3]: 12.5 to 150 µg/mL

Cl.Cn1c(CN2CCC2)cc2cc3c(cc21)OCCc1c-3[nH]c(=O)c(C(=O)O)c1O [Cpd 91, 10-(azetidin-1-ylmethyl)-4-hydroxy-9-methyl-2-oxo-2,5,6,9-tetrahydro-1H-pyrido[2′,3′:4,5]oxepino[3,2-f]indole-3-carboxylic acid hydrochloride]
MIC [1]: 12.5 to 150 µg/mL
MIC [2]: < 1 µg/mL
MIC [3]: < 1 µg/mL

CN(C)CCN(C)Cc1cc2cc3c(cc2n1C)CCCc1c-3[nH]c(=O)c(C(=O)O)c1O.Cl.Cl [Cpd 145, 10-(((2-(dimethylamino)ethyl)(methyl)amino)methyl)-4-hydroxy-9-methyl-2-oxo-1,2,5,6,7,9-hexahydropyrido[3′,2′:6,7]cyclohepta[1,2-f]indole-3-carboxylic acid dihydrochloride]
MIC [1]: 12.5 to 150 µg/mL
MIC [2]: < 1 µg/mL
MIC [3]: 12.5 to 150 µg/mL

CC(C)CNCc1cc2cc3c(cc2n1C)CCCc1c-3[nH]c(=O)c(C(=O)O)c1O.Cl [Cpd 154, 4-hydroxy-10-((isobutylamino)methyl)-9-methyl-2-oxo-1,2,5,6,7,9-hexahydropyrido[3′,2′:6,7]cyclohepta[1,2-f]indole-3-carboxylic acid hydrochloride]
MIC [1]: 3.5 to 12.5 µg/mL
MIC [2]: < 1 µg/mL
MIC [3]: < 1 µg/mL

O=C(O)c1c(O)c2c([nH]c1=O)-c1ccc(N[C@@H]3CC[C@H]4CNC[C@H]43)cc1OCC2 [Cpd 166, 4-hydroxy-9-(((cis)-octahydrocyclopenta[c]pyrrol-4-yl)-(cis)-amino)-2-oxo-1,2,5,6-tetrahydrobenzo[2,3]oxepino[4,5-b]pyridine-3-carboxylic acid hydrochloride]
MIC [1]: 12.5 to 150 µg/mL
MIC [2]: 12.5 to 150 µg/mL
MIC [3]: 12.5 to 150 µg/mL

Cl.Cn1c(CNCC2CCC2)cc2cc3c(cc21)CCCc1c-3[nH]c(=O)c(C(=O)O)c1O [Cpd 37, 10-(((cyclobutylmethyl)amino)methyl)-4-hydroxy-9-methyl-2-oxo-1,2,5,6,7,9-hexahydropyrido[3′,2′:6,7]cyclohepta[1,2-f]indole-3-carboxylic acid hydrochloride]
MIC [1]: 3.5 to 12.5 µg/mL
MIC [2]: < 1 µg/mL
MIC [3]: 1 to 3.5 µg/mL

Cl.Cn1c(CNC2CCC2)cc2cc3c(cc21)OCCc1c-3[nH]c(=O)c(C(=O)O)c1O [Cpd 172, 10-((cyclobutylamino)methyl)-4-hydroxy-9-methyl-2-oxo-2,5,6,9-tetrahydro-1H-pyrido[2′,3′:4,5]oxepino[3,2-f]indole-3-carboxylic acid hydrochloride]
MIC [1]: 3.5 to 12.5 µg/mL
MIC [2]: < 1 µg/mL
MIC [3]: < 1 µg/mL
